Patent publication US12343428B2, “Compositions and methods for cancer treatment” (University of Virginia Patent Foundation, priority 2017, dated 2025)

Tests used:
LNCaP and C4-2 cells = experiment: Synergy studies of CNL with abiraterone acetate or enzalutamide (MTS, isobolograms); type: cell-based, human; details: two AR positive cell lines; drug alone
Description: Viability was assayed using MTS assay (Promega […] 96® AQueous Non-Radioactive Cell Proliferation Assay) according to manufacturer instructions. […] Results were normalized to the respective negative controls of each experiment.

SCC-25 HNSCC cells = experiment: MTS cell viability assay, SCC-25 HNSCC cells; type: cell-based, human; details: for viability at 25 µM: Homo sapiens, 48 hours
Description: (§1) To evaluate cell viability in HNSCC cell lines after drug exposure, 5,000 cells were plated in 96-well plates. After 16-30 hours, cells were exposed to each drug alone or in combination, and viability was measured every 24 hours for a total of 48 hours. Viability was assayed using a […] 96® brand AQueous Non-Radioactive Cell Proliferation MTS Assay (Promega Corporation) according to manufacturer's instructions. A minimum of three biologically independent experiments were performed. Results were normalized to the respective negative controls of each experiment.
(§2) To evaluate cell viability of HNSCC cell lines after exposure to various amounts of Erlotinib, 5,000 UNC-10 or SCC-25 cells were plated in 96-well plates. After 16-30 hours, cells were exposed to each Erlotinib at 0 μM, 0.5 μM, 1 μM, 5 μM, 10 μM, and 25 μM, and viability was measured at 24 and 48 hours. Viability was assayed using MTS assay (Promega […] 96® AQueous Non-Radioactive Cell Proliferation Assay) according to manufacturer instructions. A minimum of three biologically independent experiments were performed. Results were normalized to the respective negative controls of each experiment.
(§3) To evaluate cell viability in HNSCC cell lines after exposure to CNLs, similar experiments were performed with five different concentrations of CNLs alone: 0 μM, 2.5 μM, 5 μM, 10 μM, 25 μM. 5,000 UNC-10 or SCC-25 cells were plated in 96-well plates. After 16-30 hours, cells were exposed to each drug alone or in combination, and viability was measured every 24 hours for a total of 48 hours. Viability was assayed using MTS assay (Promega […] 96® AQueous Non-Radioactive Cell Proliferation Assay) according to manufacturer instructions. A minimum of three biologically independent experiments were performed.
(§4) To evaluate cell viability in HNSCC cell lines after exposure to CNLs plus an EGFR inhibitor, 5,000 cells were plated in 96-well plates. After 16-30 hours, cells were exposed to six different concentrations of Erlotinib (0 μM, 0.5 μM, 1 μM, 5 μM, 10 μM, & 25 μM) combined with five different concentrations of CNLs (0 μM, 2.5 μM, 5 μM, 10 μM, & 25 μM), and viability was measured at 24 hours and 48 hours. Viability was assayed using MTS assay (Promega […] 96® AQueous Non-Radioactive Cell Proliferation Assay) according to manufacturer instructions. A minimum of three biologically independent experiments were performed. Results were normalized to the respective negative controls of each experiment.

UNC-7 HNSCC cells = experiment: LC-MS/MS sphingolipid profile, UNC-7; type: cell-based, human; details: 25 μM Erlotinib, 0, 3, 6 hours
Description: (§5) To determine Erlotinib's effect on the sphingolipid profile in HNSCC, 500,000 cells of two different cell lines (UNC-7 & UNC-10) were plated and grown in cell culture. When these cells reached about 70% confluence, they were treated with 25 μM Erlotinib. After addition of the Erlotinib, cells were collected immediately, three hours later, or six hours later. Collected cells were lysed using 0.1× PBS and protein quantification was determined using a Pierce BCA Protein Assay (Thermo Fisher Scientific) according to the manufacturer's instructions. Cell lysates containing 250 μg of protein were then used for lipid extractions. […] The sphingolipids were then analyzed using LC-MS/MS.

UNC-10 cells = experiment: Flow cytometry viability dye assay, UNC-10 cells; type: cell-based; details: Homo sapiens, 48 hours, 25 μM Erlotinib
Description: (§6) To evaluate cell death in HNSCC cell lines exposed to CNL and/or Erlotinib or Gefitinib, a flow cytometry assay was performed. Cells were plated in 24-well plates for 16-30 hours before being pre-treated for one hour with Erlotinib or Gefitinib (0 μM, 10 μM, 25 μM) and then with CNL (0 μM, 2.5 μM, 5 μM). After 24 or 48 hours, cells were stained with a Fixable Viability Dye EFLUOR™ 780 brand a viability dye (ThermoFischer Scientific Inc.)
(§7) according to the manufacturer's recommendations. The use of this dye allowed us to differentiate between two cell populations: dead or live cells. Flow cytometry controls (alive/stained, alive/non-stained, & dead/stained) were used to allow for a more rigorous discrimination between populations. Results were normalized to the respective negative controls of each experiment. Data analysis was performed using FlowJo Software.
(§8) In order to evaluate cell death in HNSCC cell lines exposed to CNL and/or Erlotinib or Gefitinib, flow cytometry assays were also performed. Cells were plated in 24-well plates for 16-30 hours before being pre-treated for one hour with Erlotinib or Gefitinib (0 μM, 10 μM, 25 μM) and then with CNL (0 μM, 2.5 μM, 5 μM). After 24 or 48 hours, cells were stained with a viability dye (Fixable Viability Dye EFLUOR™ 780, ThermoFischer Scientific) according to the manufacturer recommendations. […]

UNC-10 HNSCC cells [1] = experiment: LC-MS/MS sphingolipid profile, UNC-10; type: cell-based, human; details: 25 μM Erlotinib, 0, 3, 6 hours
Description: as §5

[2] = system: eight different HNSCC cell lines; experiment: MTS cell viability assays in eight HNSCC cell lines; type: cell-based, human; details: any of the cell lines, concentrations and time points
Description: Drugs concentrations. […] For synergistic experiments: abiraterone acetate (Selleckchem, Houston, Texas, United States of America) was used at 0.5 μM, 1 μM, 5 μM, 10 μM, 20 μM; enzalutamide (Selleckchem) at 1 μM, 5 μM, 10 μM, 20 μM, 30 μM; and CNL at 5 μM, 10 μM, 20 μM, and 30 μM. During synergy studies, each concentration of either abiraterone acetate or enzalutamide was combined with either Ghost (negative) control (nanoliposomes without the C6 ceramide—active agent) or each concentration of CNL. Respective negative controls for abiraterone acetate and enzalutamide were also used. Synergy experiments were performed in LNCaP and C4-2 cells. For synergistic studies using the HNSCC cell lines, all eight cell lines were pre-treated for one hour with either Erlotinib (Selleckchem) or Gefitinib (Sigma-Aldrich Corporation, St. Louis, Missouri, United States of America) before adding CNL. Six different concentrations of Erlotinib and Gefitinib (0 μM, 0.5 μM, 1 μM, 5 μM, 10 μM, and 25 μM) were tested against five different CNL concentrations (0 μM, 2.5 μM, 5 μM, 10 μM, and 25 μM). […]
To evaluate cell viability in HNSCC cell lines after drug exposure, 5,000 cells were plated in 96-well plates. After 16-30 hours, cells were exposed to each drug alone or in combination, and viability was measured every 24 hours for a total of 48 hours. […]

SCC-25 cells = experiment: Flow cytometry viability dye assay, SCC-25 cells; type: cell-based; details: Homo sapiens, 48 hours, 25 μM Erlotinib
Description: as §6, §7, §8

UNC-10 HNSCC cells [3] = experiment: MTS cell viability assay, UNC-10 HNSCC cells; type: cell-based, human
Description: as §1, §2, §3, §4

LNCaP cells = experiment: LC-MS/MS lipid levels in LNCaP cells; type: cell-based, human; details: 10 μM abiraterone acetate alone
Description: Cells were plated in 6-well plates for 48 hours before being exposed to CNL 10 μM and/or Abiraterone Acetate 10 μM, as well as respective controls (Ghost liposome and Ethanol respectively). Cells were collected after 1 hour, 4 hours, 12 hours, 24 hours, and 48 hours of exposure. Cells were lysed with 0.1× PBS and protein quantification was determined using a DC™ brand Protein Assay (Bio-Rad Laboratories, Inc., Hercules, California, United States of America). The Metabolomics core at University of Virginia performed lipid extraction, LC-MS/MS injections, and data analysis.

For `CNC(=O)c1ccc(N2C(=S)N(c3ccc(C#N)c(C(F)(F)F)c3)C(=O)C2(C)C)cc1F` [Enzalutamide], the “reduction of viability as single treatment” value (LNCaP and C4-2 cells) was “not as effective as a single treatment”.

`C#Cc1cccc(Nc2ncnc3cc(OCCOC)c(OCCOC)cc23)c1` [Erlotinib] was tested, and the “effect on cell viability” value (SCC-25 HNSCC cells; Erlotinib alone, higher concentrations, 24 or 48 hours) was “not statistically significant”, the viability at 25 µM (SCC-25 HNSCC cells; 25 μM Erlotinib) was 89% and the sphingolipid levels (UNC-7 HNSCC cells) was “able to alter sphingolipid levels”. For the same molecule, the viability at 25 µM (UNC-10 cells) was 91%, the sphingolipid levels (UNC-10 HNSCC cells [1]) was “able to alter sphingolipid levels” and the “effect of Erlotinib alone on cell viability” value [2] was “failing to produce any meaningful effects”. For the same molecule, the viability at 25 µM (SCC-25 cells) was 89%, the “effect on cell viability” value (UNC-10 HNSCC cells [3]; Erlotinib alone 0.5-25 μM, 24 or 48 hours) was “little effect” and the viability at 25 µM (UNC-10 HNSCC cells [3]; Homo sapiens, 48 hours, 25 μM Erlotinib) was 90%.

In the case of `COc1cc2ncnc(Nc3ccc(F)c(Cl)c3)c2cc1OCCCN1CCOCC1` [Gefitinib], the “effect on viability compared with UNC-10” value (SCC-25 HNSCC cells; Gefitinib alone, 24 hours and 48 hours) is reported as “less striking”, the viability at 25 µM (SCC-25 HNSCC cells; 25 μM Gefitinib) is reported as 81% and the effect on viability (UNC-10 HNSCC cells [3]; Gefitinib at 5 μM or less, 24 hours or 48 hours) is reported as “little effect”. For the same molecule, the effect on viability (UNC-10 HNSCC cells [3]; Gefitinib higher concentrations (10, 25 μM), particularly at 24 hours) was “reduced viability” and the viability at 5 µM (UNC-10 HNSCC cells [3]; Homo sapiens, 48 hours, 5 μM Gefitinib) was 97%.

With `CC(=O)O[C@H]1CC[C@@]2(C)C(=CC[C@@H]3[C@@H]2CC[C@]2(C)C(c4cccnc4)=CC[C@@H]32)C1` [abiraterone acetate] the “reduction of viability as single treatment” value (LNCaP and C4-2 cells) was “effective in reducing the viabilities of PCa cells”, the C6 ceramide levels (LNCaP cells) was “not changed” and the total ceramide levels (LNCaP cells) was “not changed”.
